Measured values reported in patent publication US20190124918A1, “BIOFILM FORMATION INHIBITOR AND BIOFILM FORMATION INHIBITING COMPOSITION” (KAO CORPORATION, priority 2016, published 2019).

Legend:
[1] = system: Pseudomonas PAO1 strain (ATCC 15692); experiment: Growth of test microbe (turbidity OD600), 96-well microplate culture; format: cell-based
Summary of the method: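 P. aeruginosa PAO1 diluted in Mueller Hinton Broth, exposed to test compound (ethanol stock evaporated onto DMSO in wells) and grown static at 30° C for 24 h; growth read as OD600. Growth inhibition % = (1 − compound OD600/ethanol-control OD600) × 100.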

[2] = system: biofilm-forming microbe isolated from cooling water taken from a water cooling tower; experiment: Biofilm inhibition test, quinone-based compound and chelating agent (OD570); format: cell-based
Description: A biofilm-forming microbe (microbe showing a OD570 value of 0.3 or more in the test for determining the amount of biofilm (the following section 2-4)) isolated from cooling water taken from a water cooling tower was cultured in R2A culture medium at 30° C. for 16 hours while shaking. The turbidity (OD600) of the resultant culture solution was measured. The culture solution was diluted with R2A culture medium to prepare a suspension of 10^3 cfu/mL.
Predetermined amounts of p-toluquinone and HEDP were weighed and solvent (MDG) was added to prepare a composition. Since citric acid and EDTA were not dissolved in MDG, they were directly added in culture solutions; at the same time, p-toluquinone was directly added to the culture solutions.
The suspension of a test microbe prepared in the above section 2-1) was added in individual wells of a 96 well microplate in an amount of 150 μL, and then, the test solutions prepared in the above section 2-2) was each added and culture was initiated.
After the 96 well microplate was subjected to stationary culture performed at 30° C. for 48 hours, the culture solution was removed and the resultant microplate was washed with water. Subsequently, each well was stained with 0.1% crystal violet and 200 μL of ethanol was added. The absorbance (OD570) was measured to obtain the amount of biofilm (BF) formed.

Structure (SMILES): CC1=CC(=O)C=CC1=O [Compound a, p-Toluquinone]
- Growth OD600 ([1]; final concentration 7 ppm, EtOH control 0.5913): 0.645
- Growth inhibition (%) ([1]; final concentration 17 ppm): 14.2%
- Growth OD600 ([1]; final concentration 20 ppm, EtOH control 0.6346): 0.5907
- Growth inhibition (%) ([1]; final concentration 33 ppm): 15.4%
- Growth OD600 ([1]; final concentration 33 ppm, EtOH control 0.668): 0.6284
- Growth inhibition (%) ([1]; final concentration 66 ppm): — (No growth inhibition or no BF inhibition)
- Growth OD600 ([1]; final concentration 67 ppm, EtOH control 0.628): 0.5489
- Growth inhibition (%) ([1]; final concentration 99 ppm): — (No growth inhibition or no BF inhibition)
- Growth inhibition (%) ([1]; final concentration 116 ppm): 1.8%
- Growth inhibition (%) ([1]; final concentration 132 ppm): 1.2%
- Growth OD600 ([1]; final concentration 200 ppm, EtOH control 0.6045): 0.3857
- Growth OD600 ([1]; final concentration 333 ppm, EtOH control 0.6088): 0.3334
- microbial growth (in words) ([1]; high concentration range of 200 ppm or more): inhibited
- BF inhibitory effect of combined use of HEDP and p-toluquinone compared with p-toluquinone alone ([2]; Experiment No. 2 compared to Nos. 5 to 8): higher
- OD570 ([2]; Experiment No. 12: Toluquinone 5 ppm, Citric acid 0 ppm, 0 ppm/0 ppm gave 0.329): 0.236
- BF inhibitory effect of combined use of citric acid and p-toluquinone compared with p-toluquinone alone ([2]; Experiment No. 12 compared to Nos. 15 to 18): higher
- OD570 ([2]; Experiment No. 13: Toluquinone 10 ppm, Citric acid 0 ppm, 0 ppm/0 ppm gave 0.329): 0.048
- OD570 ([2]; Experiment No. 14: Toluquinone 20 ppm, Citric acid 0 ppm, 0 ppm/0 ppm gave 0.329): 0.051
- OD570 ([2]; Experiment No. 15: Toluquinone 5 ppm, Citric acid 0.5 ppm, 0 ppm/0 ppm gave 0.329): 0.057
- OD570 ([2]; Experiment No. 16: Toluquinone 5 ppm, Citric acid 2.5 ppm, 0 ppm/0 ppm gave 0.329): 0.054
- OD570 ([2]; Experiment No. 17: Toluquinone 5 ppm, Citric acid 5 ppm, 0 ppm/0 ppm gave 0.329): 0.054
- OD570 ([2]; Experiment No. 18: Toluquinone 5 ppm, Citric acid 10 ppm, 0 ppm/0 ppm gave 0.329): 0.053
- OD570 ([2]; Experiment No. 21: Tuluquinone 5 ppm, EDTA 0 ppm, 0 ppm/0 ppm gave 0.407): 0.358
- BF inhibitory effect of combined use of EDTA and p-toluquinone compared with p-toluquinone alone ([2]; Experiment No. 21 compared to Nos. 24 to 26): higher
- OD570 ([2]; Experiment No. 22: Tuluquinone 10 ppm, EDTA 0 ppm, 0 ppm/0 ppm gave 0.407): 0.048
- OD570 ([2]; Experiment No. 23: Tuluquinone 20 ppm, EDTA 0 ppm, 0 ppm/0 ppm gave 0.407): 0.051
- OD570 ([2]; Experiment No. 24: Tuluquinone 5 ppm, EDTA 2.5 ppm, 0 ppm/0 ppm gave 0.407): 0.151
- OD570 ([2]; Experiment No. 25: Tuluquinone 5 ppm, EDTA 5 ppm, 0 ppm/0 ppm gave 0.407): 0.077
- OD570 ([2]; Experiment No. 26: Tuluquinone 5 ppm, EDTA 10 ppm, 0 ppm/0 ppm gave 0.407): 0.078
